# Reference: patent publication US7407954B2, “Thieno-(1,3)-oxazin-4-ones with lipase inhibiting activity” (Alizyme Therapeutics Limited, priority 2001, dated 2008)
# pIC50: −log10 of the molar value.
# Assays:
# [1] = target: T1, porcine pancreatic lipase (Sus scrofa, UniProt P00591); experiment: Lipase enzyme activity, NaOH titration method (lipid micelles); format: biochemical; details: NaOH titration assay
# T1 sequence (P00591 1-450): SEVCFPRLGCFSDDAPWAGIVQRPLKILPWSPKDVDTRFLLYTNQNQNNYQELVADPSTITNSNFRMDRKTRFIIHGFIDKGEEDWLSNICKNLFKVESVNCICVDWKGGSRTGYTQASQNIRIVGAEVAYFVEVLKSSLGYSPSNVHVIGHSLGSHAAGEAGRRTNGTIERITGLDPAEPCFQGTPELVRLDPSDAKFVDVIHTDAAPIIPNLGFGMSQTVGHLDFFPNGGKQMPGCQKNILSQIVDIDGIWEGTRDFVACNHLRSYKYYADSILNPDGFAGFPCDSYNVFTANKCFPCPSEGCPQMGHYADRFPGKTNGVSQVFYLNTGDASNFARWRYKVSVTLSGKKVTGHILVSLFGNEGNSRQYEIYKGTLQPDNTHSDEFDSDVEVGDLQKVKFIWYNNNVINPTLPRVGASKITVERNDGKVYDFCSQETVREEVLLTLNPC
# Protocol: Measurement of Lipase Enzyme Activity Using a NaOH Titration Method
# The inhibitory activity of the selected compound to pancreatic lipase was measured in the assay described in Pasquier et al; 1996, Vol 7, Nutritional Biochemistry, 293-302.
# Log dose/response curves were constructed using a range of inhibitor concentrations.
# Selected thieno-oxazinone compounds were tested in the NaOH titration assay. In this assay, the activity of porcine pancreatic lipase in a system containing lipid micelles is recorded. These conditions are therefore similar to those encountered in the gastrointestinal tract.
# human pancreatic lipase = target: T2, human pancreatic lipase (Homo sapiens, UniProt P16233); experiment: Lipase activity, quinine diimine dye colorimetric assay (Sigma Lipase-PS); format: biochemical
# T2 sequence (P16233 17-465): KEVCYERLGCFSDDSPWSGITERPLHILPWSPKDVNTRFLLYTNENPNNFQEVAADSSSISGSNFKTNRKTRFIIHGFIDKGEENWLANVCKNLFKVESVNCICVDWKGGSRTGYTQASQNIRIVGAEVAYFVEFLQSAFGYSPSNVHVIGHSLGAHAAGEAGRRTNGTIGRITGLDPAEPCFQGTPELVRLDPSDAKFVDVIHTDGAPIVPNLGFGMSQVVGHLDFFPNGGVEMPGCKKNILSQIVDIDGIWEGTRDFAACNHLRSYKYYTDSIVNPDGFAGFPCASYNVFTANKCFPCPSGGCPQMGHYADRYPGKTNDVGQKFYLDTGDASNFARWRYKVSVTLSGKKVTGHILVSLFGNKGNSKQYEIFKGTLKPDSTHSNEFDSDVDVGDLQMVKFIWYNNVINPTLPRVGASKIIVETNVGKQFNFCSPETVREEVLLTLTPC
# Protocol: Measurement of Lipase Activity Using a Quinine Diimine Dye Calorimetric Assay
# The inhibitory activity of the selected compounds to pancreatic lipase was measured in the following assay available from Sigma Ltd (Lipase-PS™, catalog number 805-A):
# The glycerol released from the action of pancreatic and monoglyceride lipase was oxidised to release H2O2. The peroxidase reaction step then produces a quinine dye which is pink in colour and absorbs light at a wavelength of 550 nm.
# Individual test compounds were dissolved in DMSO (dimethyl sulphoxide) at 10 mM. DMSO was used to avoid any problems with compounds being water-insoluble.
# For individual compounds, the IC50 (concentration at which lipase activity is inhibited to one half of the maximum) was calculated by measuring the inhibitory activity from log-dose response curves using a range of inhibitor concentrations.
# A range of standard compounds were assayed in the quinine dye calorimetric assay which provides a rapid method to measure lipase inhibitory activity.
SMILES,pIC50 [1],pIC50 (human pancreatic lipase)
"O=c1oc(Nc2ccccc2)nc2sccc12 [Compound 1, 2-Phenylamino-4H-thieno[2,3-d][1,3]oxazin-4-one]",≥ 6.00,> 7.00
"O=c1oc(Nc2ccc(Oc3ccccc3)cc2)nc2sccc12 [Compound 5, 2-(4-Phenoxy)phenylamino-4H-thieno[2,3-d][1,3]oxazin-4-one]",≥ 6.00,> 7.00
O=c1oc(Nc2ccccc2)nc2cc(-c3ccccc3)sc12 [Compound 6],≥ 6.00,> 7.00
"O=c1oc(Nc2ccc(Oc3cccc(C(F)(F)F)c3)cc2)nc2sccc12 [Compound 7, 2-(4-(3-Trifluoromethyl-phenoxy)phenylamino)-4H-thieno[2,3-d][1,3]oxazin-4-one]",≥ 6.00,> 7.00
CC(C)(C)c1cc2nc(Nc3ccccc3)oc(=O)c2s1 [Compound 8],≥ 6.00,> 7.00
"Cc1cc2c(=O)oc(Nc3ccc(Oc4ccccc4)cc3)nc2s1 [Compound 9, 6-Methyl-2-(4-phenoxy)phenylamino-4H-thieno[2,3-d][1,3]oxazin-4-one]",≥ 6.00,> 7.00
"O=c1oc(Nc2ccc(Oc3ccccc3)cc2)nc2ccsc12 [Compound 10, 2-(4-Phenoxy)phenylamino-4H-thieno[3,2-d][1,3]oxazin-4-one]",≥ 6.00,> 7.00
"O=c1oc(Nc2ccc(Cc3ccccc3)cc2)nc2sccc12 [Compound 11, 2-(4-Phenylmethyl)phenylamino-4H-thieno[2,3-d][1,3]oxazin-4-one]",≥ 6.00,> 7.00
"O=C(c1ccccc1)c1ccc(Nc2nc3sccc3c(=O)o2)cc1 [Compound 12, 2-(4-Benzoyl)phenylamino-4H-thieno[2,3-d][1,3]oxazin-4-one]",≥ 6.00,> 7.00
"O=c1oc(Nc2ccc(Oc3ccc(C(F)(F)F)cc3)cc2)nc2sccc12 [Compound 14, 2-(4-(4-Trifluoromethyl-phenoxy)phenylamino)-4H-thieno[2,3-d][1,3]oxazin-4-one]",≥ 6.00,> 7.00
"O=c1oc(Oc2ccc(Oc3cccc(C(F)(F)F)c3)cc2)nc2ccsc12 [Compound 15, 2-(4-(3-Trifluoromethyl-phenoxy)phenoxy)-4H-thieno[3,2-d][1,3]oxazin-4-one]",≥ 6.00,> 7.00
"O=c1oc(Nc2ccc(Sc3ccccc3)cc2)nc2sccc12 [Compound 16, 2-(4-Phenylthio)phenylamino-4H-thieno[2,3-d][1,3]oxazin-4-one]",≥ 6.00,> 7.00
"CCCCCCCCCCCCNc1nc2sc(C)cc2c(=O)o1 [Compound 18, 2-Dodecylamino-6-methyl-4H-thieno[2,3-d][1,3]oxazin-4-one]",–,> 7.00
"CCCCCCCCCCCCN(C)c1nc2sc(C)cc2c(=O)o1 [Compound 19, 2-N-Dodecyl-N-methylamino-6-methyl-4H-thieno[2,3-d][1,3]oxazin-4-one]",–,> 7.00
"CCCCCCCCCCCCNc1nc2sccc2c(=O)o1 [Compound 20, 2-Dodecylamino-4H-thieno[2,3-d][1,3]oxazin-4-one]",–,> 7.00
"CCCCCCCCCCCCSc1nc2sc(C)cc2c(=O)o1 [Compound 21, 2-Dodecylthio-6-methyl-4H-thieno[2,3-d][1,3]oxazin-4-one]",–,> 7.00
"O=c1oc(Nc2ccc(S(=O)(=O)c3ccccc3)cc2)nc2sccc12 [Compound 23, 2-(4-Phenylsulfonyl)phenylamino-4H-thieno[2,3-d][1,3]oxazin-4-one]",–,> 7.00
"O=C(Nc1ccccc1)c1ccc(Nc2nc3sccc3c(=O)o2)cc1 [Compound 24, 2-(4-Phenylcarbamoyl)phenylamino-4H-thieno[2,3-d][1,3]oxazin-4-one]",–,> 7.00
"O=c1oc(Nc2ccc(Oc3ccc(Cl)cc3)cc2)nc2sccc12 [Compound 25, 2-(4-(4-Chlorophenoxy)-phenylamino)-4H-thieno[2,3-d][1,3]oxazin-4-one]",–,> 7.00

SMILES,pIC50 [1],pIC50 (human pancreatic lipase)
"Cc1ccc(Oc2ccc(Nc3nc4sccc4c(=O)o3)cc2)cc1 [Compound 26, 2-(4-(4-Methylphenoxy)-phenylamino)-4H-thieno[2,3-d][1,3]oxazin-4-one]",–,> 7.00
"N#Cc1ccc(Nc2nc3sccc3c(=O)o2)cc1 [Compound 27, 2-(4-Cyanophenyl)amino-4H-thieno[2,3-d][1,3]oxazin-4-one]",–,> 7.00
"CCCc1cc2c(=O)oc(Nc3ccc(C#N)cc3)nc2s1 [Compound 28, 2-(4-Cyanophenyl)amino-6-propyl-4H-thieno[2,3-d][1,3]oxazin-4-one]",–,> 7.00
"Cc1cc2c(=O)oc(Nc3ccc(C#N)cc3)nc2s1 [Compound 29, 2-(4-Cyanophenyl)amino-6-methyl-4H-thieno[2,3-d][1,3]oxazin-4-one]",–,> 7.00
"N#Cc1ccc(Nc2nc3sc(Cc4ccccc4)cc3c(=O)o2)cc1 [Compound 30, 6-Phenylmethyl-2-(4-cyanophenyl)amino-4H-thieno[2,3-d][1,3]oxazin-4-one]",–,> 7.00
"CCCCCCCCCCCCc1cc2c(=O)oc(Nc3ccc(C#N)cc3)nc2s1 [Compound 31, 2-(4-Cyanophenyl)amino-6-dodecyl-4H-thieno[2,3-d][1,3]oxazin-4-one]",–,> 7.00
"Cc1cc2c(=O)oc(NCCCCc3ccccc3)nc2s1 [Compound 32, 6-Methyl-2-(4-phenylbutyl)amino-4H-thieno[2,3-d][1,3]oxazin-4-one]",–,> 7.00
"Cc1cc2c(=O)oc(NCCCl)nc2s1 [Compound 33, 2-(2-Chloroethyl)amino-6-methyl-4H-thieno[2,3-d][1,3]oxazin-4-one]",–,> 7.00
"COC(=O)CCCCCNc1nc2sc(C)cc2c(=O)o1 [Compound 35, 2-(5-Methoxycarbonylpentyl)amino-6-methyl-4H-thieno[2,3-d][1,3]oxazin-4-one]",–,> 7.00
"O=c1oc(Nc2ccc(Oc3ccc(C(F)(F)F)cc3)cc2)nc2ccsc12 [Compound 38, 2-(4-(4-Trifluoromethyl-phenoxy)phenylamino)-4H-thieno[3,2-d][1,3]oxazin-4-one]",–,> 7.00
"N#Cc1ccc(Nc2nc3ccsc3c(=O)o2)cc1 [Compound 40, 2-(4-Cyanophenyl)amino-4H-thieno[3,2-d][1,3]oxazin-4-one]",–,> 7.00
"CCCCCCCCCCCCNc1nc2ccsc2c(=O)o1 [Compound 41, 2-Dodecylamino-4H-thieno[3,2-d][1,3]oxazin-4-one]",–,> 7.00
"Cc1cc2nc(Nc3ccc(Oc4ccccc4)cc3)oc(=O)c2s1 [Compound 43, 5-Methyl-2-(4-phenoxy)phenylamino-4H-thieno[3,2-d][1,3]oxazin-4-one]",≥ 6.00,> 7.00
"CCCc1cc2c(=O)oc(Nc3ccc(Oc4ccccc4)cc3)nc2s1 [Compound 44, 6-Propyl-2-(4-phenoxy)phenylamino-4H-thieno[2,3-d][1,3]oxazin-4-one]",≥ 6.00,> 7.00
"CCCCCCCCCCCCCCCCNc1nc2sc(C)cc2c(=O)o1 [Compound 45, 2-Hexadecylamino-6-methyl-4H-thieno-[2,3-d][1,3]oxazin-4-one]",≥ 6.00,> 7.00
"Cc1cc2c(=O)oc(Nc3ccccc3)nc2s1 [Compound 46, 6-Methyl-2-phenylamino-4H-thieno[2,3-d][1,3]oxazin-4-one]",≥ 6.00,> 7.00
"CCCCNc1nc2sc(C)cc2c(=O)o1 [Compound 47, 2-Butylamino-6-methyl-4H-thieno[2,3-d][1,3]oxazin-4-one]",≥ 6.00,> 7.00
"O=c1oc(Nc2ccc(Oc3ccccc3)cc2)nc2sc(Cl)cc12 [Compound 48, 6-Chloro-2-(4-phenoxy)phenylamino-4H-thieno[2,3-d][1,3]oxazin-4-one]",≥ 6.00,> 7.00
"CCCCCCCCCCCCc1cc2c(=O)oc(Nc3ccc(Oc4ccccc4)cc3)nc2s1 [Compound 49, 6-Dodecyl-2-(4-phenoxy)phenylamino-4H-thieno[2,3-d][1,3]oxazin-4-one]",≥ 6.00,> 7.00
